Results on 1 compound are retold here after ChEMBL document CHEMBL5344435 (J Med Chem, 2024).

The data set can be described thus: in vivo. The following applies: C57BL/6J, mouse, po, 10 mg/kg.

Structures are written as SMILES.

The term Cmax denotes the highest concentration seen after dosing. Compound `[O-][n+]1cc(O)cc(CCCc2ccc(Cl)c(C(F)(F)F)c2)c1` displayed a Cmax at 24 h of 102 ng/mL.
